Assay results published in patent US20180028425A1, “COSMETIC COMPOSITIONS OF UV FILTERS” (3V Sigma S.P.A., priority 2016, published 2018).

Test: UV-A/UV-B ratio of the UV filter compounds
Format: physicochemical
Text: Typically, the numerical UV-A/UV-B ratio of these compounds, defined as the ratio of the intensity of the radiation absorbed between 320 nm and 400 nm (UVA fraction) to that absorbed between 290 nm and 320 nm (UVB fraction), is greater than 0.20, preferably greater than 0.30, whereas in the analogous triazine compounds with a 4-aminobenzoate or 4-aminobenzamide substituent different from the substituents described in Formula (IV), it is below about 0.14.
The UVA:UVB ratio is the ratio between the intensity of the radiation absorbed between 320 nm and 400 nm (UVA fraction) and that absorbed between 290 nm and 320 nm (UVB fraction).

Q: Which “UVA fraction compared with known triazine analogues (diethylhexyl butamido triazone, ethylhexyl triazone)” value does the source give for `CCCCC(CC)COC(=O)c1ccc(NC(=O)c2ccc(Nc3nc(Nc4ccc(C(=O)NC(C)(C)C)cc4)nc(Nc4ccc(C(=O)OCC(CC)CCCC)cc4)n3)cc2)cc1` (stereo not drawn) [Compound (VI)] here?
A: at least twice as high

Q: Which “UVA fraction compared with known triazine analogues (diethylhexyl butamido triazone, ethylhexyl triazone)” value does the source give for `CCCCC(CC)COC(=O)c1ccc(NC(=O)c2ccc(Nc3nc(Nc4ccc(C(=O)OCC(CC)CCCC)cc4)nc(Nc4ccc(C(=O)OCC(CC)CCCC)cc4)n3)cc2)cc1` (stereo not drawn) [Compound (VII)] here?
A: at least twice as high

Q: Which “UVA fraction compared with known triazine analogues (diethylhexyl butamido triazone, ethylhexyl triazone)” value does the source give for `CCCCC(CC)COC(=O)c1ccc(NC(=O)c2ccc(Nc3nc(Nc4ccc(C(=O)Nc5ccc(C(=O)OCC(CC)CCCC)cc5)cc4)nc(Nc4ccc(C(=O)NC(C)(C)C)cc4)n3)cc2)cc1` (stereo not drawn) [Compound (V)] here?
A: at least twice as high
